Series [1] concerns HMVECs. The experiment in a line: Endothelial cell migration assay (modified Boyden chamber). It counts as cell-based, human. The protocol: Endothelial Cell Migration Assay-The endothelial cell migration assay was performed as described in, […], Methods Mol Med. 78: 337-47 (2003), incorporated herein by reference. Briefly, HMVECs were starved overnight in media containing 0.1% bovine serum albumin (BSA), harvested, resuspended in DME with 0.1% BSA, plated on the bottom side of a modified Boyden chamber (Nucleopore Corporation, MD), and allowed to attach in the inverted chamber for 2 hours at 37° C. The chamber was then re-inverted, test substances added to the wells of the upper chamber and cells were allowed to migrate for four hours at 37° C. Membranes were recovered, fixed and stained and the number of cells that had migrated to the upper chamber per ten high power fields was counted. Background migration in DME+0.1% BSA was subtracted and the data reported as the number of cells migrated per 10 high power fields (400×). VEGF (R&D Systems, Minneapolis, Minn.) was used as a positive control at a concentration of 100 pg/ml.

Series [2] concerns HMVECs. The experiment in a line: Cell morphology / actin stress fiber staining. The format is cell-based, human. Conditions: treated or lentivirus-transduced.
Series [3] has as its system Rap1. It counts as cell-based, human. Conditions: HMVECs.
Description: Briefly, cells are lysed in a suitable lysis buffer and clarified by centrifugation. Clarified lysates are incubated with a GST fusion protein containing the Rap-1 binding domain of Ral-GDS coupled to glutathione-sepharose beads. Proteins bound to the beads are then extracted and resolved by sodium dodecyl sulfate-polyacrylamide gel electrophoresis (SDS-PAGE) and subjected to western blot analysis using anti-Rap-1 antibodies.
Rap1 pull down assay—HMVECs were grown to subconfluent in 100 mm plates, starved in EBM2 medium plus 0.1% BSA over night and treated as indicated.
Series [4] has as its system HMVECs in scaffolds implanted in SCID mice. The experiment in a line: SCID mouse model of human angiogenesis, in vivo microvessel density. As to conditions: daily local injection for 5 days. The text has this:
A further assay for evaluating inhibition of tubule formation suitable for use in the presently described methods is an in vivo assay of microvessel density. In this regard, functional human microvessels can be engineered in SCID mice by implanting human dermal microvascular endothelial cells (HMVECs) seeded in biodegradable scaffolds, as described by Nor J E, et al., Lab Invest 81: 453-63 (2001), incorporated herein by reference. These cells organize into microvessels that anastomose with the host vasculature and transport mouse blood cells. Differences in vessel density are quantified post-euthanization by standard immunohistochemical techniques using, for example, anti-human CD31, and counting the number of CD31-positive vessels in a set number of random fields.
SCID Mouse Model of Human Angiogenesis—Functional human microvessels were induced in severe combined immunodeficient (SCID) mice (CB-17 SCID; Taconic, Germantown, N.Y., USA). […]
Determination of In Vivo Microvessel Densities—Formalin fixed, paraffin-embedded implants were generated in order to quantify differences in vessel densities in the tumors of the treated and untreated animals. […] The number of CD31+blood vessels was counted in 10 random fields per sponge using an optical microscope (×400).

Series [5] relates to endothelial cells. Conditions: 0.3 mM, low serum conditions, data not shown.
Series [6] has as its system mouse cornea.
Description: The effect of 8CPT-2Me-cAMP treatment on FGF-induced angiogenesis was investigated using the mouse corneal assay. Mice were injected with either 0.6 or 6 μmoles of 8CPT-2Me-cAMP, concentrations similar to those used for the skin implant scaffolds.
The subject of series [7] is age-related macular degeneration. Conditions: 1-2 drops of 0.1% w/v aqueous ophthalmic composition, each eye twice daily.
Excerpt: A patient complaining of vision loss is diagnosed with age-related macular degeneration.
In series [8] the test system is CREB, a substrate of PKA. The series is described as follows: Phospho-CREB western analysis. As to conditions: HMVEC lysates; forskolin given with IBMX per FIG. 5B legend.
Excerpt: Cell lysate extraction and western analysis—Cell lysates were collected, resolved by SDS-PAGE, and analyzed by western blot using anti-Phospho-CREB (Ser133) antibody or anti-tubulin antibody at a dilution of 1:1000 or anti-Rap1 at a dilution of 1:500, using standard methods as described in Kuo, W L et al., J. Biol. Chem. 279: 23073-81 (2004), incorporated herein by reference.

Turning to `O=C(Nc1ncnc2c1ncn2[C@@H]1O[C@@H]2COP(=O)(O)O[C@H]2[C@H]1O)c1ccccc1` [6-Benz-cAMP, N^6-Benzoyladenosine-3′,5′cyclic monophosphate], the “effect on VEGF-induced chemotaxis” value in series [1] is listed as “no effect”.
For the compound `CO[C@@H]1[C@@H]2OP(=O)(O)OC[C@H]2O[C@H]1n1c(Sc2ccc(Cl)cc2)nc2c(N)ncnc21` [8CPT-2Me-cAMP, 8-(4-chlorophenylthio)-2′-O-methyladenosine-3′,5′cyclic monophosophate], the cell morphology entry in series [2] is on record as “this effect could be mimicked”. Besides, in series [1], the “concentration giving complete inhibition of VEGF-stimulated migration” value was 2.5 µM. Besides, the “migration in the absence of VEGF (nonspecific/background migration)” value in series [1] (no VEGF) is given as “no suppression”. The “Rap1 activation (GTP-bound Rap1)” value in series [3] is “robust stimulator”. Further, the “inhibition of number of microvessels” value in series [4] (0.03 μmoles per implant) is given as “roughly 50%”; in series [4] (0.3 μmoles per implant), “greater than 90%”. In addition, the apoptotic induction result in series [5] is recorded as “did not detect apoptotic induction”. Further, the “average area of vascularization relative to control mice” value in series [6] (0.6 μmoles) was “about half”. Besides, in series [6] (0.6 μmoles, control 6 out of 6), the “mice with detectable vascularization” value is 6 out of 8. For the same compound, in series [6] (6 μmoles (higher dose)), the FGF-induced angiogenesis result was “effectively suppressed”. Further, the mice showing angiogenesis in series [6] (6 μmoles, control 6 out of 6) was 1 out of 10. For the same compound, the ocular function result in series [7] is “noticeable improvement”. Moreover, the CREB phosphorylation entry in series [8] is recorded as “did not induce significant CREB phosphorylation”.
Take `C[C@@H](N)[C@H]1CC[C@H](C(=O)Nc2ccncc2)CC1` [Y-27632]: the “effect on VEGF-induced chemotaxis” value in series [1] was “dose-dependent inhibition”.

The values above are taken from patent US20080287384A1, “Methods of Identifying Agents Having Antiangiogenic Activity” (priority 2005, published 2008).
